The text below walks through data of patent US10294202B2, “Pyrrolidinones as herbicides” (FMC Corporation, priority 2013, dated 2019).

One experiment deals with rice, transplanted. The experiment in a line: Test F flood (paddy) test. It counts as in vivo, Oryza sativa cv. Japonica—M202. The following applies: 21 d, scale 0-100. The source says: (§1) Three plastic pots (ca. 16-cm diameter) per rate were partially filled with sterilized Tama silt loam soil comprising a 35:50:15 ratio of sand, silt and clay and 2.6% organic matter. Separate plantings for each of the three pots were as follows. Seeds from the U.S. of monochoria (Monochoria vaginalis), sedge, umbrella (small-flower umbrella sedge, Cyperus difformis), bulrush, […] bulrush, Scirpus juncoides), and […] (purple […] coccinea), were planted into one 16-cm pot for each rate. Seeds from the U.S. of flatsedge, rice (rice flatsedge, Cyperus iria), sprangletop, Brdd. (bearded sprangletop, Leptochloa fascicularis), one stand of 9 or 10 water seeded rice seedlings (Rice, W.S. Jap, Oryza sativa cv. 'Japonica-[…]' or Rice, W.S. Ind, 'Indica'), and two stands of 3 or 4 seedlings of rice, transplanted (transplanted rice, Oryza sativa cv. 'Japonica-[…]') were planted into one 16-cm pot for each rate. Seeds from the U.S. of barnyardgrass (Echinochloa crus-galli), […] (common […], Alisma plantago-aquatica), and watergrass, late (late watergrass, Echinochloa oryzicola) were planted into one 16-cm pot for each rate. Plantings were sequential so that crop and weed species were at the 2.0 to 2.5-leaf stage at time of treatment. Potted plants were grown in a greenhouse with day/night temperature settings of 30/27° C., and supplemental balanced lighting was provided to maintain a 16-h photoperiod. Test pots were maintained in the greenhouse until test completion. At time of treatment, test pots were flooded to 3 cm above the soil surface, treated by application of test compounds directly to the paddy water, and then maintained at that water depth for the duration of the test. Effects of treatments on rice and weeds were visually evaluated by comparison to untreated controls after 21 d. Plant response ratings, summarized in Table F, are based on a scale of 0 to 100 where 0 is no effect and 100 is complete control. A dash (-) response means no test result.

The next experiment relates to barnyardgrass. The experiment in a line: Test F flood (paddy) test. It counts as in vivo, Echinochloa crus-galli. The following applies: 21 d, scale 0-100.
Description: as §1

A further experiment has as its system galium. In words: Test D pre-/postemergence herbicide test. In kind it is in vivo, Galium aparine. The following applies: for Plant response rating: Galium, scale 0 to 100; for Plant response rating, Galium: scale 0 to 100 (0 no effect, 100 complete control). The source says: (§2) Seeds of plant species selected from bluegrass (annual bluegrass, Poa annua), blackgrass (Alopecurus myosuroides), canarygrass (littleseed canarygrass, Phalaris minor), chickweed (common chickweed, Stellaria media), galium (catchweed bedstraw, Galium aparine), bromegrass, downy (downy bromegrass, Bromus tectorum), field poppy (Papaver rhoeas), field violet (Viola arvensis), foxtail, green (green foxtail, Setaria viridis), deadnettle (henbit deadnettle, Lamium amplexicaule), ryegrass, Italian (Italian ryegrass, Lolium multiflorum), kochia (Kochia scoparia), lambsquarters (Chenopodium album), oilseed rape (Brassica napus), pigweed (Amaranthus retroflexus), chamomile (scentless chamomile, Matricaria inodora), Russian thistle (Salsola kali), speedwell (bird's-eye speedwell, Veronica persica), barley, spring (spring barley, Hordeum vulgare), wheat, spring (spring wheat, Triticum aestivum), buckwheat, wild (wild buckwheat, Polygonum convolvulus), mustard, wild (wild mustard, Sinapis arvensis), oat, wild (wild oat, Avena fatua), radish, wild (wild radish, Raphanus raphanistrum), […]), barley, winter (winter barley, Hordeum vulgare), and wheat, winter (winter wheat, Triticum aestivum) were planted into a silt loam soil and treated preemergence with test chemicals formulated in a non-phytotoxic solvent mixture which included a surfactant. At the same time, these species were planted in pots containing Redi-Earth® planting medium (Scotts Company, 14111 Scottslawn Road, Marysville, Ohio 43041) comprising spaghnum peat moss, vermiculite, wetting agent and starter nutrients and treated with postemergence applications of the test chemicals formulated in the same manner. Plants ranged in height from 2 to 18 cm (1- to 4-leaf stage). Treated plants and controls were maintained in a controlled growth environment for 7 to 21 days after which time all species were compared to controls and visually evaluated. Plant response ratings, summarized in Table D, are based on a scale of 0 to 100 where 0 is no effect and 100 is complete control. A dash (-) response means no test result.

The next experiment has as its system ryegrass, Italian. The experiment in a line: Test D pre-/postemergence herbicide test. The following applies: for Plant response rating: Postemergence, Ryegrass, Italian, scale 0 to 100; for Plant response rating, Ryegrass, Italian: Preemergence, scale 0 to 100 (0 no effect, 100 complete control). It counts as in vivo, Lolium multiflorum.
Description: as §2

For another experiment, the system named is Russian thistle. In words: Test D pre-/postemergence herbicide test. In kind it is in vivo, Salsola kali. The following applies: for Plant response rating: Postemergence, Russian Thistle, scale 0 to 100; for Plant response rating, Russian Thistle: Preemergence, scale 0 to 100 (0 no effect, 100 complete control).
Description: as §2

`O=C1NCC(c2cccc(C(F)(F)F)c2)C1C(=O)Nc1ccccc1F` (racemic) [Compound 3]: the “Plant response rating, Rice, Transplanted” value (“Plant response rating, Rice” below) is 0 with rice, transplanted (250 g ai/ha) and 0 in the experiment with rice, transplanted (500 g ai/ha). Further, the “Plant response rating, Barnyardgrass” value with barnyardgrass (250 g ai/ha) and with barnyardgrass (500 g ai/ha) was 90 each time.

Take `O=C1NCC(c2ccc(F)c(F)c2)C1C(=O)Nc1cccc(F)c1` (racemic) [Compound 12]: the Plant response rating was 0 with galium (Postemergence, 16 g ai/ha); 0 with galium (Postemergence, 31 g ai/ha); 15 in the experiment on galium (Postemergence, 62 g ai/ha); 20 in the experiment on galium (Postemergence, 125 g ai/ha); 25 in the experiment on galium (Postemergence, 250 g ai/ha); 0 in the experiment with galium (Preemergence, 125 g ai/ha). Besides, the Plant response rating in the experiment with galium (Preemergence, 250 g ai/ha) amounted to 10; in the experiment with ryegrass, Italian (16 g ai/ha) it was 0; in the experiment with ryegrass, Italian (31 g ai/ha) it was 0; in the experiment with ryegrass, Italian (62 g ai/ha) it was 0; in the experiment on ryegrass, Italian (125 g ai/ha), 10; in the experiment on ryegrass, Italian (250 g ai/ha), 15. Besides, the Plant response rating in the experiment on Russian thistle (16 g ai/ha) is listed as 0; with Russian thistle (31 g ai/ha), 0; in the experiment on Russian thistle (62 g ai/ha), 20; in the experiment with Russian thistle (125 g ai/ha), 30; in the experiment with Russian thistle (250 g ai/ha), 80. For the same compound, the “Plant response rating, Galium” value with galium (Preemergence, 31 g ai/ha) is on record as 0; in the experiment with galium (Preemergence, 62 g ai/ha), 0; in the experiment on galium (Preemergence, 16 g ai/ha), 0. In addition, the “Plant response rating, Ryegrass, Italian” value is 0 in the experiment on ryegrass, Italian (31 g ai/ha); 0 with ryegrass, Italian (62 g ai/ha); 0 with ryegrass, Italian (125 g ai/ha); 0 with ryegrass, Italian (250 g ai/ha); 0 in the experiment on ryegrass, Italian (16 g ai/ha). In addition, the “Plant response rating, Russian Thistle” value in the experiment on Russian thistle (31 g ai/ha), in the experiment on Russian thistle (62 g ai/ha), in the experiment on Russian thistle (125 g ai/ha), in the experiment on Russian thistle (250 g ai/ha) and with Russian thistle (16 g ai/ha) was 0 throughout.

On to `O=C1NCC(c2cc(F)c(F)c(F)c2)C1C(=O)Nc1ccccc1C(F)(F)F` (racemic) [Compound 33], for which the Plant response rating with galium (Postemergence, 16 g ai/ha) came out at 0; in the experiment with galium (Postemergence, 31 g ai/ha) it was 0; in the experiment on galium (Postemergence, 62 g ai/ha), 0; with galium (Postemergence, 125 g ai/ha) it was 0; in the experiment on galium (Postemergence, 250 g ai/ha) it was 0; with ryegrass, Italian (16 g ai/ha), 0. The Plant response rating in the experiment on ryegrass, Italian (31 g ai/ha) was determined as 0; in the experiment with ryegrass, Italian (62 g ai/ha) it was 0; in the experiment with ryegrass, Italian (125 g ai/ha), 0; in the experiment on ryegrass, Italian (250 g ai/ha), 0; with Russian thistle (16 g ai/ha), 0; in the experiment with Russian thistle (31 g ai/ha), 0. Further, the Plant response rating in the experiment on Russian thistle (62 g ai/ha), in the experiment with Russian thistle (125 g ai/ha) and with Russian thistle (250 g ai/ha) was 0 each time.

As to `O=C1NCC(c2cc(F)c(F)c(F)c2)C1C(=O)Nc1ccccc1F` (racemic) [Compound 34], the Plant response rating in the experiment on galium (Postemergence, 16 g ai/ha) was 0; in the experiment on galium (Postemergence, 31 g ai/ha), 0; in the experiment on galium (Postemergence, 62 g ai/ha), 0; in the experiment on galium (Postemergence, 125 g ai/ha) it was 0; with galium (Postemergence, 250 g ai/ha), 0; with ryegrass, Italian (16 g ai/ha), 0. The Plant response rating in the experiment on ryegrass, Italian (31 g ai/ha) stood at 0; in the experiment on ryegrass, Italian (62 g ai/ha), 0; in the experiment with ryegrass, Italian (125 g ai/ha) it was 0; with ryegrass, Italian (250 g ai/ha) it was 0; in the experiment with Russian thistle (16 g ai/ha), 0; with Russian thistle (31 g ai/ha) it was 0. Besides, the Plant response rating in the experiment with Russian thistle (62 g ai/ha), in the experiment with Russian thistle (125 g ai/ha) and in the experiment with Russian thistle (250 g ai/ha) was 0 in each case.

On to `O=C1NCC(c2cccc(C(F)(F)F)c2)C1C(=O)Nc1ccc(F)cc1F` (racemic) [Compound 207], for which the “Plant response rating, Rice” value with rice, transplanted (125 g ai/ha) worked out at 0; in the experiment on rice, transplanted (250 g ai/ha) it was 0; in the experiment on rice, transplanted (500 g ai/ha), 0. Besides, the “Plant response rating, Galium” value is reported as 55 with galium (Preemergence, 31 g ai/ha); 60 in the experiment with galium (Preemergence, 62 g ai/ha); 45 in the experiment on galium (Preemergence, 125 g ai/ha). In the experiment on galium (Preemergence, 250 g ai/ha), the Plant response rating was found to be 20. Moreover, the “Plant response rating, Ryegrass, Italian” value in the experiment with ryegrass, Italian (31 g ai/ha) turned out to be 0; in the experiment on ryegrass, Italian (62 g ai/ha), 5; in the experiment with ryegrass, Italian (125 g ai/ha), 5; in the experiment with ryegrass, Italian (250 g ai/ha) it was 15. In addition, the “Plant response rating, Barnyardgrass” value is given as 60 with barnyardgrass (125 g ai/ha), 100 with barnyardgrass (250 g ai/ha) and 100 with barnyardgrass (500 g ai/ha).

As for `O=C1NCC(c2ccc(C(F)(F)F)c(F)c2)C1C(=O)Nc1cccc(F)c1F` (racemic) [Compound 247], the “Plant response rating, Rice” value in the experiment with rice, transplanted (125 g ai/ha) is 0; in the experiment on rice, transplanted (250 g ai/ha), 0; in the experiment with rice, transplanted (500 g ai/ha), 0; in the experiment on rice, transplanted (1000 g ai/ha) it was 10; with rice, transplanted (2000 g ai/ha), 15. In addition, the “Plant response rating, Barnyardgrass” value in the experiment on barnyardgrass (125 g ai/ha) came to 60; in the experiment on barnyardgrass (250 g ai/ha), 65; in the experiment with barnyardgrass (500 g ai/ha), 70; in the experiment on barnyardgrass (1000 g ai/ha) it was 70; in the experiment with barnyardgrass (2000 g ai/ha), 75.

Take `O=C1NCC(c2cccc(C(F)(F)F)c2)C1C(=O)Nc1cccc(F)c1F` (centres unmarked) [Compound 241]: the “Plant response rating, Galium” value with galium (Preemergence, 31 g ai/ha) was 20; in the experiment on galium (Preemergence, 62 g ai/ha), 25; with galium (Preemergence, 125 g ai/ha) it was 35. This compound returned a Plant response rating with galium (Preemergence, 250 g ai/ha) of 80. Further, the “Plant response rating, Ryegrass, Italian” value is recorded as 15 in the experiment on ryegrass, Italian (31 g ai/ha); 20 in the experiment with ryegrass, Italian (62 g ai/ha); 20 with ryegrass, Italian (125 g ai/ha); 50 in the experiment on ryegrass, Italian (250 g ai/ha).

In the case of `CN1CC(c2ccc(F)cc2)C(C(=O)Nc2cccc(F)c2F)C1=O` (centres unmarked) [Compound 271], the “Plant response rating, Rice” value with rice, transplanted (64 g ai/ha) was determined as 0; in the experiment on rice, transplanted (125 g ai/ha), 0; with rice, transplanted (250 g ai/ha) it was 0; with rice, transplanted (500 g ai/ha), 15. Besides, the “Plant response rating, Barnyardgrass” value with barnyardgrass (64 g ai/ha) was determined as 55; in the experiment with barnyardgrass (125 g ai/ha), 75; with barnyardgrass (250 g ai/ha), 100; with barnyardgrass (500 g ai/ha), 100.
